The nature of data set [1]: Aqueous stability / parent compound release by quantitative HPLC. It counts as physicochemical. To be noted: for parent compound released: release of parent compound 4.
Another data set relates to P. berghei-infected mice. As to conditions: antimalarials in clinical trials; cited from earlier work.
For a further data set, the system named is P. falciparum. Description: In vitro antimalarial activity as summarised in text. Type of data set: cell-based.
The format of data set [2] is in vivo.
The test system of a further data set is P. berghei-GFP. Description: In vivo efficacy, modified Thompson test.
Data set [3] concerns P. falciparum clone W2/Indochina (chloroquine and pyrimethamine resistant). Description: In vitro antimalarial activity, 3H-hypoxanthine incorporation, W2. It counts as cell-based. To be noted: Table 2; means of at least two independent experiments.
Data set [4] relates to P. falciparum TM90-C2B/Thailand (chloroquine, mefloquine, pyrimethamine, and atovaquone resistant). Kind of data set: In vitro antimalarial activity, 3H-hypoxanthine incorporation, TM90-C2B. Type of data set: cell-based. To be noted: Table 2; means of at least two independent experiments.

“And” between values parts separate entries of the source, which are not always exact repeats. Equal values may be shown once. A value given as a limit tells only on which side of the number the result lay.

The values below come from publication PMC8904075 (Journal of medicinal chemistry, 2021).

A word on the Tmax: it is the time from dosing to the highest level. As a reminder, the EC50 is the concentration at which the effect is half-maximal. A low value points to a more potent agent.

With `CNCCOC(=O)OCOc1c(-c2ccc(C(F)(F)F)cc2)c(C)nc2cc(OC)c(Cl)cc12.Cl` [compound 27, 6-Chloro-7-methoxy-2-methyl-3-(4-(trifluoromethyl)phenyl)-4-(((2-(methylammonio)ethoxycarbonyl)oxy)methoxy)quinoline, chloride salt], the parent compound released in data set [1] (in 1 h at pH 7.0) is recorded as greater than 90%; in data set [1] (in 10 h at pH 4.0), greater than 25%.
Consider `CS(=O)(=O)c1ccc(-c2cnc(N)c(-c3ccc(C(F)(F)F)nc3)c2)cc1` [MMV390048], for which the “single oral (PO) curative dose, single exposure radical cure” value (from here on “single oral (PO) curative dose”) in the data set on P. berghei-infected mice was 30 mg/kg.
Turning to `CCOC(=O)Oc1c(-c2ccccc2C)c(C)nc2cc(OC)c(Cl)cc12` [compound 11, 6-Chloro-7-methoxy-2-methyl-3-(o-tolyl)-4-((ethoxycarbonyl)oxy)quinoline], in the data set on P. falciparum (in vitro antimalarial activity, Table 1), the “fold less potent than reference compound 3” value was found to be 10 fold.
On to `c1cc([C@H]2CC[C@]3(CC2)OOC2(O3)C3CC4CC(C3)CC2C4)ccc1OCCN1CCOCC1` (stereo partly shown) [OZ439], for which the “single oral (PO) curative dose” value in the data set with P. berghei-infected mice is reported as 20 mg/kg.
As for `COc1cc2[nH]c(C)c(-c3ccc(C(F)(F)F)cc3)c(=O)c2cc1Cl` [compound 4, 6-chloro-7-methoxy-2-methyl-3-(4-(trifluoromethyl)phenyl)-4(1H)-quinolone], the Tmax in data set [2] (plasma, po, 50 mg/kg) is 2 h. In data set [2] (single oral 50 mg/kg of 4, 0.5% aqueous HEC), the “maximum plasma concentration of 4” value stood at 365 nM.
As to `C[C@H]1Cc2c([nH]c3cc(Cl)c(F)cc23)[C@@]2(N1)C(=O)Nc1ccc(Cl)cc12` [KAE609], the “single oral (PO) curative dose” value with P. berghei-infected mice is recorded as 100 mg/kg.
In the data set on P. falciparum (Plasmodium falciparum), `CN1CCCOC1=O` [compound 13, 3-Methyl-1,3-oxazinan-2-one] yielded an EC50 greater than 4 µM.
`COc1cc2[nH]c(C)c(-c3ccc(Oc4ccc(OC(F)(F)F)cc4)cc3F)c(=O)c2cc1Cl` [compound 2, 6-chloro-3-(2-fluoro-4-(4-(trifluoromethoxy)phenoxy)phenyl)-7-methoxy-2-methyl-4(1H)-quinolone]: the in vivo activity entry with P. berghei-GFP (single dose of 10 mg/kg, 0.5% aqueous HEC) was “completely inactive”.
Turning to `CNCCCOC(=O)OCOc1c(-c2ccc(C(F)(F)F)cc2)c(C)nc2cc(OC)c(Cl)cc12.Cl` [compound 28, 6-Chloro-7-methoxy-2-methyl-3-(4-(trifluoromethyl)phenyl)-4-(((3-(methylammonio)propyloxycarbonyl)oxy)methoxy)quinoline, chloride salt], the parent compound released in data set [1] (in 5 h at pH 7.0) was greater than 55%. Also, in data set [1] (low pH values), the “stability at low pH values” is “stable”. Besides, the “Suppression [%] day 6 PI ± S.D.” value with P. berghei-GFP (10 mg/kg PO once a day on days 3–5 PI, 0.5% aqueous HEC, mice) is 82 ± 0.6%. Further, the “extension of life span of treated animals relative to untreated controls” value in the data set on P. berghei-GFP (10 and 50 mg/kg PO days 3–5 PI) was “does not significantly extend”.
In the data set on P. falciparum (release byproducts, devoid of antimalarial activity), formaldehyde [compound 14] registered an EC50 greater than 4 µM. The “W2 pEC50” value in data set [3] was “inactive”. Further, the “C2B pEC50” value in data set [4] is “inactive”.
Consider `CNCCCOC(=O)OCOc1c(-c2ccc(Oc3ccc(OC(F)(F)F)cc3)cc2F)c(C)nc2cc(OC)c(Cl)cc12.Cl` [compound 30, 6-Chloro-7-methoxy-2-methyl-3-(2-fluoro-4-(4-(trifluoromethoxy)phenoxy)phenyl)-4-(((3-(methylammonio)propyloxycarbonyl)oxy)methoxy)quinoline, chloride salt], for which the clearance entry in data set [2] (single oral administration, 0.5% aqueous HEC) is “low clearance”. In the data set with P. berghei-GFP (P. berghei-infected mice, single dose, no advanced formulation), the “single oral dose producing cures” value stood at 3 mg/kg. Moreover, the “average day of death” value in the data set on P. berghei-GFP (single dose 1 mg/kg PO, all 5 mice) was greater than 13 days. Moreover, the number of cures is 5 out of 5 and 5/5 in the data set on P. berghei-GFP (single dose 3 mg/kg PO on day 3 PI, 3 mg/kg); 5 out of 5 and 5/5 in the data set with P. berghei-GFP (single dose 10 mg/kg PO on day 3 PI, 10 mg/kg).
